Reference: patent US9315489B2, “Compounds and compositions for inhibiting the activity of ABL1, ABL2 and BCR-ABL1” (Novartis AG, priority 2012, dated 2016)

Columns and labels:
[1] = molecular target: T1, ABL1 (64-515) (Homo sapiens (Human), UniProt P00519); assay: Radio ABL1 (64-515) assay (radiometric filter-binding); assay type: biochemical
[2] = molecular target: T1, ABL1 (64-515); assay: Caliper ABL1 (64-515) assay (microfluidic mobility shift); assay type: biochemical
[3] = test system: Ba/F3-BCR-ABL1-WT cells; assay: Ba/F3-BCR-ABL1-WT cellular proliferation assay; assay type: cell-based, murine; conditions: Mus musculus; 48 hours; read-out: Ba/F3-BCR-ABL1-WT IC50
[4] = test system: Ba/F3-BCR-ABL1-T315I cells; assay: Ba/F3-BCR-ABL1-T315I cellular proliferation assay; assay type: cell-based, murine; conditions: Mus musculus; 48 hours; read-out: Ba/F3-BCR-ABL1-T315I IC50
Excerpt: The murine bone marrow-derived cell line Ba/F3 was used to generate the appropriate cell line models. Ba/F3 cells were obtained from the German Collection of Microorganisms and Cell Cultures (DSMZ, Braunschweig and DSMZ No. ACC 300). […] These cells are referred to as Ba/F3-WT.
To generate Ba/F3 cells that depend on BCR-ABL1 expression for growth and survival, Ba/F3 cells were engineered to express BCR-ABL1 using retroviral transduction with a MSCV based retroviral vector containing a p210 BCR-ABL1expression cassette. When grown in the absence of IL-3, the proliferation of the cells is dependent on the expression of BCR-ABL1. (Daley, G. Q. and Baltimore, D. Transformation of an interleukin 3-dependent hematopoietic cell line by the chronic myeloid leukemia-specific p210 BCR-ABL1 protein. PNAS 1988; 85:9312-9316). These cells are referred to as Ba/F3-BCR-ABL1-WT. A similar approach was used to generate Ba/F3 cells that depend on a BCR-ABL1 variant in which threonine 315 is replaced with isoleucine. These cells are referred to as Ba/F3-BCR-ABL1-T3151.
Ba/F3-WT cells were maintained in RPMI1640 media with L-glutamine, HEPES (Lonza), 10% FBS (Gibco) and 5 ng/ml IL-3 (Calbiochem). Ba/F3-BCR-ABL1-WT cells and Ba/F3-BCR-ABL1-T3151 cells were maintained in RPMI1640 media with L-glutamine, HEPES (Lonza) and 10% FBS (Gibco).
For each cell line, the cell density was adjusted to 50 000 cells/mL and 50 μL (2500 cells) added per well of a 384-well assay plate.
Test compounds were resuspended in DMSO at a concentration of 10 mM. A serial three-fold dilution of each compound with DMSO was performed in 384-well plates using the Janus Liquid Dispenser (PerkinElmer). Compound was delivered to the assay plates containing 2500 cells in a 50 μL volume via Acoustic delivery from an ATS-100 (EDC). For Ba/F3-BCR-ABL1-WT cell assays, […] of each compound dilution was transferred to the assay plate for final assay concentrations of 0.4 μM, 0.13 μM, 0.044 μM, 0.015 μM, 0.005 μM, 0.001 μM, 0.00033 μM, 0.00011 μM, 0.000037 μM, 0.000012 μM. For Ba/F3-WT and Ba/F3-BCR-ABL1-T315I cell assays, […] of each compound dilution was transferred to the assay plate for final assay concentrations of 10 μM, 3.33 μM, 1.11 μM, 0.37 μM, 0.12 μM, 0.041 μM, 0.014 μM, 0.0046 μM, 0.0015 μM, 0.00051 μM.
Cells were incubated at 37° C. in a humidified environment with 5% carbon dioxide for 48 hours. Britelite plus solution (Perkin Elmer) was prepared according to the manufacturer's instructions and 25 μL added to each well of the assay plate. Plates were incubated for 3-5 minutes and the luminescence detected on an EnVision Multimode plate reader (Perkin Elmer). The degree of luminescence correlates with the number of cells in each well. The effect of each inhibitor concentration can therefore be calculated and IC50 values generated.

T1 sequence (P00519 64-515): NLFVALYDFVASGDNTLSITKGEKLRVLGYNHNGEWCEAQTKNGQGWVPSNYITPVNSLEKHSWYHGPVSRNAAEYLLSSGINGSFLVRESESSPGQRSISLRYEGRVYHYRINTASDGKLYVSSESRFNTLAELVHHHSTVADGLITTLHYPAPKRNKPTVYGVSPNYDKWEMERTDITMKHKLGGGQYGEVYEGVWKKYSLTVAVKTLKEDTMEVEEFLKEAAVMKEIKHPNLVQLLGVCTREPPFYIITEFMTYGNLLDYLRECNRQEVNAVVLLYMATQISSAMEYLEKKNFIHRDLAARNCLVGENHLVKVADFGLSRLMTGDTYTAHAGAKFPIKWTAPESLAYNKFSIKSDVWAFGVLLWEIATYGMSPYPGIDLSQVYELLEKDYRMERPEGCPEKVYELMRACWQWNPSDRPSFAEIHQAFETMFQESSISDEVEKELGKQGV

IC50 [1] [nM] | IC50 [2] [nM] | IC50 [3] [nM] | IC50 [4] [nM] | Compound
8.5 | 3.5 | 2.1 | 306 | Cc1ccc(C(=O)Nc2ccc(OC(F)(F)F)cc2)cc1-c1cncnc1 [Example 14, 4-Methyl-3-(pyrimidin-5-yl)-N-(4-(trifluoromethoxy)phenyl)benzamide]
– | 3.9 | 7 | 408 | O=C(Nc1ccc(OC(F)(F)Cl)cc1)c1cnc(Cl)c(-c2cncc(F)c2)c1 [Example 78, 2-Chloro-N-(4-(chlorodifluoromethoxy)phenyl)-5′-fluoro-[3,3′-bipyridine]-5-carboxamide]

The remaining lines, values behind:

Compound | IC50 [1] [nM] | IC50 [2] [nM] | IC50 [3] [nM] | IC50 [4] [nM]
N#CC1(c2ncc(C(=O)Nc3ccc(OC(F)(F)F)cc3)cc2-c2cncnc2)CCC1 [Example 48, 6-(1-Cyanocyclobutyl)-5-(pyrimidin-5-yl)-N-(4-(trifluoromethoxy)phenyl)nicotinamide] | 9 | 6.2 | 18 | 363
CCOc1ncc(C(=O)Nc2ccc(OC(F)(F)F)cc2)cc1-c1cncnc1 [Example 58, 6-Ethoxy-5-(pyrimidin-5-yl)-N-(4-(trifluoromethoxy)phenyl)nicotinamide] | 49 | 9.4 | – | 754
O=C(Nc1ccc(OC(F)(F)Cl)cc1)c1cnc(OC2CCOCC2)c(-c2cncnc2)c1 [Example 67, N-(4-(Chlorodifluoromethoxy)phenyl)-5-(pyrimidin-5-yl)-6-((tetrahydro-2h-pyran-4-yl)oxy)nicotinamide] | 1.2 | 3.8 | – | 456
COC(=O)c1ccc(C(=O)Nc2ccc(OC(F)(F)F)cc2)cc1-c1cncnc1 [Example 68, Methyl 2-(pyrimidin-5-yl)-4-((4-(trifluoromethoxy)phenyl)carbamoyl)benzoate] | < 3 | 1.6 | – | 177
O=C(Nc1ccc(OC(F)(F)F)cc1)c1cncc(-c2cncc(F)c2)c1 [Example 75, 5′-Fluoro-N-(4-(trifluoromethoxy)phenyl)-[3,3′-bipyridine]-5-carboxamide] | – | 26 | 38 | 655
O=C(Nc1ccc(OC(F)(F)Cl)cc1)c1cnc(Cl)c(-c2cncnc2)c1 [Example 76, 6-Chloro-N-(4-(chlorodifluoromethoxy)phenyl)-5-(pyrimidin-5-yl)nicotinamide] | – | 2.9 | 2 | 61
